The results in this text go back to ChEMBL document CHEMBL5120866, “Design and Synthesis of Novel Celastrol Derivatives as Potential Anticancer Agents against Gastric Cancer Cells” (J Nat Prod, 2022).

Structures are written as SMILES.

The subject of one assay is MCF7. Kind of assay: Antiproliferative activity against human MCF7 cells assessed as cell growth inhibition incubated for 48 hrs by MTT assay. In kind it is functional, cell-based. The settings on record: MCF7, 48 h.
The next assay has as its system HeLa. Kind of assay: Antiproliferative activity against human HeLa cells assessed as cell growth inhibition incubated for 48 hrs by MTT assay. The format is functional, cell-based.
In assay [1] the test system is BGC-823. Kind of assay: Antiproliferative activity against human BGC-823 cells assessed as cell growth inhibition incubated for 48 hrs by MTT assay. The format is functional, cell-based. The settings on record: BGC-823, 48 h.
Another assay relates to HepG2. Kind of assay: Antiproliferative activity against human HepG2 cells assessed as cell growth inhibition incubated for 48 hrs by MTT assay. To be noted: HepG2, 48 h. The format is functional, cell-based.
The subject of a further assay is HCT-116. Kind of assay: Antiproliferative activity against human HCT-116 cells assessed as cell growth inhibition incubated for 48 hrs by MTT assay. In kind it is functional, cell-based. To be noted: HCT-116, 48 h.
The subject of assay [2] is BGC-823. Kind of assay: Antiproliferative activity against human BGC-823 cells assessed as cell growth inhibition at 0.5 uM incubated for 48 hrs by MTT assay relative to control. The format is functional.
The test system of assay [3] is BGC-823. Kind of assay: Induction of apoptosis in human BGC-823 cells assessed as late apoptotic cells at 1 uM incubated for 24 hrs by annexin-V-FITC and PI staining based flow cytometry analysis (reference value: 0.6%). The format is functional.
The subject of assay [4] is BGC-823. Kind of assay: Induction of apoptosis in human BGC-823 cells assessed as necrotic cells at 1 uM incubated for 24 hrs by annexin-V-FITC and PI staining based flow cytometry analysis (reference value: 0.6%). The format is functional.
The test system of assay [5] is BGC-823. Kind of assay: Antitumor activity against human BGC-823 cells xenografted in athymic BALB/c nude mouse assessed as tumor growth inhibition rate at 1.5 mg/kg, ip measured every 2 days for 21 days by curson caliper method relative to control. The settings on record: BGC-823, 504 h, time 21 day, read-out: TGI. The format is functional.
The subject of assay [6] is BGC-823. Kind of assay: Induction of apoptosis in human BGC-823 cells assessed as early apoptotic cells at 1 uM incubated for 24 hrs by annexin-V-FITC and PI staining based flow cytometry analysis (reference value: 2.4%). The format is functional.
Assay [7] has as its system BGC-823. Kind of assay: Induction of apoptosis in human BGC-823 cells assessed as viable cells at 1 uM incubated for 24 hrs by annexin-V-FITC and PI staining based flow cytometry analysis (reference value: 96.3%). The format is functional. The settings on record: read-out: Activity.

In the case of `CC1=C(O)C(=O)C=C2C1=CC=C1[C@@]2(C)CC[C@@]2(C)[C@@H]3C[C@](C)(C(=O)OCCCCn4cccn4)CC[C@]3(C)CC[C@]12C`, the IC50 was determined as 1100 nM in the assay on MCF7; 1100 nM with HeLa; 470 nM in the assay with BGC-823 [1]; 860 nM in the assay with HepG2; 890 nM in the assay on HCT-116. Moreover, the inhibition at 0.5 µM in the assay with BGC-823 [2] is above 50%.
`COC(=O)c1cnn(CCCCOC(=O)[C@]2(C)CC[C@]3(C)CC[C@]4(C)C5=CC=C6C(=CC(=O)C(O)=C6C)[C@]5(C)CC[C@@]4(C)[C@@H]3C2)c1`: the IC50 in the assay on MCF7 is 840 nM; in the assay with HeLa it was 820 nM; in the assay on BGC-823 [1] it was 340 nM; in the assay with HepG2, 820 nM; in the assay on HCT-116, 690 nM. For the same molecule, in the assay with BGC-823 [2], the inhibition at 0.5 µM was above 50%.
For `CCOC(=O)c1cnn(CCCCOC(=O)[C@]2(C)CC[C@]3(C)CC[C@]4(C)C5=CC=C6C(=CC(=O)C(O)=C6C)[C@]5(C)CC[C@@]4(C)[C@@H]3C2)c1`, the IC50 with MCF7 is 720 nM; in the assay on HeLa, 750 nM; in the assay on BGC-823 [1], 330 nM; in the assay with HepG2, 700 nM; in the assay on HCT-116, 530 nM. Further, the inhibition at 0.5 µM in the assay on BGC-823 [2] was above 50%.
Turning to `COC(=O)c1cnn(CCCOC(=O)[C@]2(C)CC[C@]3(C)CC[C@]4(C)C5=CC=C6C(=CC(=O)C(O)=C6C)[C@]5(C)CC[C@@]4(C)[C@@H]3C2)c1`, the IC50 in the assay with MCF7 amounted to 520 nM; in the assay on HeLa, 610 nM; in the assay on BGC-823 [1], 280 nM; with HepG2, 390 nM; in the assay on HCT-116 it was 590 nM. Further, in the assay with BGC-823 [2], the inhibition at 0.5 µM was above 50%.
On to `CC1=C(O)C(=O)C=C2C1=CC=C1[C@@]2(C)CC[C@@]2(C)[C@@H]3C[C@](C)(C(=O)OCCCCn4cc([N+](=O)[O-])cn4)CC[C@]3(C)CC[C@]12C`, for which the IC50 in the assay on MCF7 was found to be 740 nM; in the assay with HeLa, 880 nM; in the assay on BGC-823 [1] it was 460 nM; in the assay on HepG2, 480 nM; in the assay with HCT-116, 640 nM. Further, the inhibition at 0.5 µM with BGC-823 [2] is above 50%.
For the molecule `CC1=C(O)C(=O)C=C2C1=CC=C1[C@@]2(C)CC[C@@]2(C)[C@@H]3C[C@](C)(C(=O)OCCCCn4cc(C)cn4)CC[C@]3(C)CC[C@]12C`, the IC50 with MCF7 was determined as 1000 nM; in the assay with HeLa, 910 nM; with BGC-823 [1], 430 nM; in the assay on HepG2 it was 840 nM; in the assay on HCT-116 it was 880 nM. Further, the inhibition at 0.5 µM in the assay with BGC-823 [2] is above 50%.
With `CC1=C(O)C(=O)C=C2C1=CC=C1[C@@]2(C)CC[C@@]2(C)[C@@H]3C[C@](C)(C(=O)O)CC[C@]3(C)CC[C@]12C` [CELASTROL], the IC50 is 1700 nM with MCF7; 1700 nM in the assay on HeLa; 1100 nM with BGC-823 [1]; 1500 nM with HepG2; 1900 nM in the assay with HCT-116. The Activity with BGC-823 [3] is 4%; with BGC-823 [4], 0.2%; with BGC-823 [6] it was 16.1%. Besides, the inhibition in vivo at 1.5 mg/kg in the assay with BGC-823 [5] is 76.5%. Besides, in the assay with BGC-823 [7], the viability at 1 µM was 79.7%.
